Earlier results, collected in patent US12558321B2, “Pharmaceutical formulation” (CIPLA LIMITED, priority 2018, dated 2026).

COC(=O)c1ccc2c(c1)NC(=O)/C2=C(\Nc1ccc(N(C)C(=O)CN2CCN(C)CC2)cc1)c1ccccc1 [Nintedanib]
solubility at neutral conditions (neutral conditions): poor solubility
solubility in water (water): slightly soluble in water
